Results as given in patent US6914045B2, “Glycopeptide antibiotics” (Wyeth Holdings Corporation, priority 2001, dated 2005).
Converted amounts (≈) assume the structure as drawn.

What was measured:
Assay in all cases: in vitro antibacterial evaluation, MIC by broth dilution
Assay type in all cases: cell-based
Streptococcus sp. = conditions: broth dilution, 18 hours at 35° C.
Procedure, shortened: (§1)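 Test organisms, which included recent clinical isolates resistant to methicillin, penicillin and/or vancomycin, were inoculated at 5×10^5 CFU/mL into Muller-Hinton II […] containing antibiotic at 64-0.06 μg/mL. Minimum inhibitory concentrations were then read as the lowest level inhibiting growth.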

Staphylococcus sp. = conditions: broth dilution, 18 hours at 35° C.
Procedure, shortened: as §1

Enterococcus sp. = conditions: broth dilution, 18 hours at 35° C.
Procedure, shortened: as §1

Escherichia coli = conditions: 18 hours at 35° C.

MIC Streptococcus agalactiae (GC 4564) (Streptococcus sp.): >128 µg/mL
MIC Streptococcus pneumoniae (ATCC 6301) (Streptococcus sp.): 128 µg/mL (≈ 87.9 µM)
MIC Streptococcus pneumoniae (GC 1894) (Streptococcus sp.): 128 µg/mL (≈ 87.9 µM)
MIC Streptococcus pneumoniae (GC 4565) (Streptococcus sp.): 128 µg/mL (≈ 87.9 µM)
MIC Streptococcus pyogenes (GC 4563) (Streptococcus sp.): >128 µg/mL
MIC Streptococcus pneumoniae (ATCC 6301) (Streptococcus sp.; inoculum 5×10^5 CFU/mL, strain ATCC 6301): 128 µg/mL (≈ 87.9 µM)
MIC Streptococcus pneumoniae (GC 1894) (Streptococcus sp.; inoculum 5×10^5 CFU/mL, strain GC 1894): 128 µg/mL (≈ 87.9 µM)
MIC Streptococcus pyogenes (GC 4563) (Streptococcus sp.; inoculum 5×10^5 CFU/mL, strain GC 4563): >128 µg/mL
MIC Streptococcus agalactiae (GC 4564) (Streptococcus sp.; inoculum 5×10^5 CFU/mL, strain GC 4564): >128 µg/mL
MIC Streptococcus pneumoniae (GC 4565) (Streptococcus sp.; inoculum 5×10^5 CFU/mL, strain GC 4565): 128 µg/mL (≈ 87.9 µM)
MIC Coagulase Negative Staphylococcus (GC 4547) (Staphylococcus sp.): >128 µg/mL
MIC Coagulase Negative Staphylococcus (GC 4548) (Staphylococcus sp.): >128 µg/mL
MIC Coagulase Negative Staphylococcus (GC 4549) (Staphylococcus sp.): >128 µg/mL
MIC Coagulase Negative Staphylococcus (GC 4551) (Staphylococcus sp.): >128 µg/mL
MIC Coagulase Negative Staphylococcus (GC 6257) (Staphylococcus sp.): >128 µg/mL
MIC Staphylococcus aureus (ATCC 29213) (Staphylococcus sp.): >128 µg/mL
MIC Staphylococcus aureus (GC 1131) (Staphylococcus sp.): >128 µg/mL
MIC Staphylococcus aureus (GC 3051) (Staphylococcus sp.): >128 µg/mL
MIC Staphylococcus aureus (GC 3053) (Staphylococcus sp.): >128 µg/mL
MIC Staphylococcus aureus (GC 4541) (Staphylococcus sp.): >128 µg/mL
MIC Staphylococcus aureus (GC 4542) (Staphylococcus sp.): >128 µg/mL
MIC Staphylococcus aureus (GC 4544) (Staphylococcus sp.): >128 µg/mL
MIC Staphylococcus aureus (GC 4545) (Staphylococcus sp.): >128 µg/mL
MIC Staphylococcus aureus-SMITH (GC 4543) (Staphylococcus sp.): >128 µg/mL
MIC Staphylococcus aureus (ATCC 29213) (Staphylococcus sp.; strain ATCC 29213): >128 µg/mL
MIC Staphylococcus aureus (GC 1131) (Staphylococcus sp.; strain GC 1131): >128 µg/mL
MIC Staphylococcus aureus (GC 3051) (Staphylococcus sp.; strain GC 3051): >128 µg/mL
MIC Staphylococcus aureus (GC 3053) (Staphylococcus sp.; strain GC 3053): >128 µg/mL
MIC Staphylococcus aureus (GC 4541) (Staphylococcus sp.; strain GC 4541): >128 µg/mL
MIC Staphylococcus aureus (GC 4542) (Staphylococcus sp.; strain GC 4542): >128 µg/mL
MIC Staphylococcus aureus-SMITH (GC 4543) (Staphylococcus sp.; strain GC 4543): >128 µg/mL
MIC Staphylococcus aureus (GC 4544) (Staphylococcus sp.; strain GC 4544): >128 µg/mL
MIC Staphylococcus aureus (GC 4545) (Staphylococcus sp.; strain GC 4545): >128 µg/mL
MIC Coagulase Negative Staphylococcus (GC 4547) (Staphylococcus sp.; strain GC 4547): >128 µg/mL
MIC Coagulase Negative Staphylococcus (GC 4548) (Staphylococcus sp.; strain GC 4548): >128 µg/mL
MIC Coagulase Negative Staphylococcus (GC 4549) (Staphylococcus sp.; strain GC 4549): >128 µg/mL
MIC Coagulase Negative Staphylococcus (GC 4551) (Staphylococcus sp.; strain GC 4551): >128 µg/mL
MIC Coagulase Negative Staphylococcus (GC 6257) (Staphylococcus sp.; strain GC 6257): >128 µg/mL
MIC Enterococcus avium (GC 4558) (Enterococcus sp.): 64 µg/mL (≈ 44 µM)
MIC Enterococcus faecalis (ATCC 29212) (Enterococcus sp.): >128 µg/mL
MIC Enterococcus faecalis (GC 2242) (Enterococcus sp.): 128 µg/mL (≈ 87.9 µM)
MIC Enterococcus faecalis (GC 2691) (Enterococcus sp.): >128 µg/mL
MIC Enterococcus faecalis (GC 3059) (Enterococcus sp.): >128 µg/mL
MIC Enterococcus faecalis (GC 4552) (Enterococcus sp.): >128 µg/mL
MIC Enterococcus faecalis (GC 4553) (Enterococcus sp.): 128 µg/mL (≈ 87.9 µM)
MIC Enterococcus faecalis (GC 4554) (Enterococcus sp.): >128 µg/mL
MIC Enterococcus faecalis (GC 6189) (Enterococcus sp.): >128 µg/mL
MIC Enterococcus faecium (GC 2243) (Enterococcus sp.): >128 µg/mL
MIC Enterococcus faecium (GC 4556) (Enterococcus sp.): >128 µg/mL
MIC Enterococcus faecium (GC 4557) (Enterococcus sp.): 128 µg/mL (≈ 87.9 µM)
MIC Enterococcus faecalis (ATCC 29212) (Enterococcus sp.; inoculum 5×10^5 CFU/mL, strain ATCC 29212): >128 µg/mL
MIC Enterococcus faecalis (GC 2242) (Enterococcus sp.; inoculum 5×10^5 CFU/mL, strain GC 2242): 128 µg/mL (≈ 87.9 µM)
MIC Enterococcus faecium (GC 2243) (Enterococcus sp.; inoculum 5×10^5 CFU/mL, strain GC 2243): >128 µg/mL
MIC Enterococcus faecalis (GC 2691) (Enterococcus sp.; inoculum 5×10^5 CFU/mL, strain GC 2691): >128 µg/mL
MIC Enterococcus faecalis (GC 3059) (Enterococcus sp.; inoculum 5×10^5 CFU/mL, strain GC 3059): >128 µg/mL
MIC Enterococcus faecalis (GC 4552) (Enterococcus sp.; inoculum 5×10^5 CFU/mL, strain GC 4552): >128 µg/mL
MIC Enterococcus faecalis (GC 4553) (Enterococcus sp.; inoculum 5×10^5 CFU/mL, strain GC 4553): 128 µg/mL (≈ 87.9 µM)
MIC Enterococcus faecalis (GC 4554) (Enterococcus sp.; inoculum 5×10^5 CFU/mL, strain GC 4554): >128 µg/mL
MIC Enterococcus faecium (GC 4556) (Enterococcus sp.; inoculum 5×10^5 CFU/mL, strain GC 4556): >128 µg/mL
MIC Enterococcus faecium (GC 4557) (Enterococcus sp.; inoculum 5×10^5 CFU/mL, strain GC 4557): 128 µg/mL (≈ 87.9 µM)
MIC Enterococcus avium (GC 4558) (Enterococcus sp.; inoculum 5×10^5 CFU/mL, strain GC 4558): 64 µg/mL (≈ 44 µM)
MIC Enterococcus faecalis (GC 6189) (Enterococcus sp.; inoculum 5×10^5 CFU/mL, strain GC 6189): >128 µg/mL
MIC Escherichia coli (ATCC 25922) (Escherichia coli): >128 µg/mL
MIC Escherichia coli (GC 4559) (Escherichia coli): >128 µg/mL
MIC Escherichia coli (GC 4560) (Escherichia coli): 32 µg/mL (≈ 22 µM)
Structure (SMILES): CC(c1ccccc1)C1NC(=O)CNC(=O)C(CO)NC(=O)C(C(O)C2CNC(=N)N2C2OC(CO)C(O)C3OC(C)(C)OC32)NC(=O)C(C(O)C2CNC(=N)N2)NC(=O)C(Cc2ccc(OC3OC(CO)C(OC4OC5COC(C)(C)OC5C5OC(C)(C)OC45)C4OC(C)(C)OC34)cc2)NC1=O (stereo not shown) [Example 229b]
MIC Staphylococcus haemolyticus (GC 4546) (Staphylococcus sp.): >128 µg/mL
MIC Staphylococcus haemolyticus (GC 4546) (Staphylococcus sp.; strain GC 4546): >128 µg/mL
